According to US4001218A, “Penicillins” (Bayer Aktiengesellschaft, priority 1972, dated 1977):

Assays:
Psdm. aerug. F 41 = test: MIC, test tube series dilution test, Psdm. aerug. F 41; type: cell-based, Pseudomonas aeruginosa; details: Psdm. aerug. F 41; 24 hours, 37°C
E. coli A 261 = test: MIC, test tube series dilution test, E. coli A 261; type: cell-based; details: 24 hours, 37°C
Proteus vulg. 1017 = type: cell-based, Proteus vulgaris; details: Proteus 1017; 24 hours, 37°C
Staph. aureus 133 = type: cell-based, Staphylococcus aureus; details: Staph. aureus 133; 24 hours, 37°C
Proteus morg. 932 = test: MIC, test tube series dilution test, Proteus morg. 932; type: cell-based; details: 24 hours, 37°C
Enterococcus 9790 = test: MIC, test tube series dilution test, Enterococcus 9790; type: cell-based; details: 24 hours, 37°C
E. coli 14 = type: cell-based; details: E. coli 14; 24 hours, 37°C

SMILES	MIC (Psdm. aerug. F 41)	MIC (E. coli A 261)	MIC (Proteus vulg. 1017)	MIC (Staph. aureus 133)	MIC (Proteus morg. 932)	MIC (Enterococcus 9790)	MIC (E. coli 14)
CC1(C)S[C@@H]2[C@H](NC(=O)[C@H](NC(=O)CSc3ccc(NC(=O)C4CC4)cc3)c3ccccc3)C(=O)N2[C@H]1C(=O)O [Example 60]	~ 256 U/ml	> 256 U/ml	~ 4 U/ml	–	–	–	–
CC1(C)S[C@@H]2[C@H](NC(=O)[C@H](NC(=O)c3ccc(NC(=O)CCC4CCCC4)cc3)c3ccccc3)C(=O)N2[C@H]1C(=O)O [Example 9, sodium D(-)-α-(4-[3-cyclopentylpropionylaminobenzoylamino)]-benzylpenicillin]	–	> 256 U/ml	–	< 1 U/ml	–	–	–
CC1(C)S[C@@H]2[C@H](NC(=O)[C@H](NC(=O)c3ccc(NC(=O)C4CCC4)cc3[N+](=O)[O-])c3ccccc3)C(=O)N2[C@H]1C(=O)O [Example 6, sodium D(-)-α-(4-cyclobutanecarbonylamino-2-nitro-benzoylamino)-benzylpenicillin]	–	> 256 U/ml	–	< 1 U/ml	–	–	–
CC1(C)S[C@@H]2[C@H](NC(=O)[C@H](NC(=O)c3ccc(NC(=O)C4CC4)cc3[N+](=O)[O-])c3ccccc3)C(=O)N2[C@H]1C(=O)O [Example 3, sodium D(-)-α-(4-cyclopropanecarbonylamino-2-nitrobenzoylamino)-benzylpenicillin]	–	> 256 U/ml	–	–	–	–	–
CC1(C)S[C@@H]2[C@H](NC(=O)[C@H](NC(=O)c3cc(NC(=O)C4CC4)cc(NC(=O)C4CC4)c3)c3ccccc3)C(=O)N2[C@H]1C(=O)O [Example 72]	–	> 256 U/ml	–	< 1 U/ml	> 256 U/ml	~ 16 U/ml	–
COc1cc(C(=O)Nc2ccc(SCC(=O)N[C@@H](C(=O)N[C@@H]3C(=O)N4[C@@H]3SC(C)(C)[C@@H]4C(=O)O)c3ccccc3)cc2)cc(OC)c1OC [Example 58]	–	–	> 256 U/ml	< 1 U/ml	–	–	~ 16 U/ml
CC1(C)S[C@@H]2[C@H](NC(=O)[C@H](NC(=O)c3cc(NC=O)cc(NC=O)c3)c3ccccc3)C(=O)N2[C@H]1C(=O)O [Example 71]	–	> 256 U/ml	–	< 1 U/ml	> 256 U/ml	–	~ 4 U/ml
CC1(C)S[C@@H]2[C@H](NC(=O)[C@H](NC(=O)c3ccc(NC(=O)CCC4CCCCC4)cc3)c3ccccc3)C(=O)N2[C@H]1C(=O)O [Example 10, sodium D(-)-α-[4-(3-cyclohexanepropionylamino-benzoylamino)]-benzylpenicillin]	–	> 256 U/ml	–	< 1 U/ml	–	~ 16 U/ml	< 1 U/ml
CC1(C)S[C@@H]2[C@H](NC(=O)[C@H](NC(=O)c3ccc(NC(=O)C4CCCCCC4)cc3)c3ccccc3)C(=O)N2[C@H]1C(=O)O [Example 13, sodium D(-)-α-(4-cycloheptanecarbonylamino-benzoylamino)-benzylpenicillin]	–	–	–	< 1 U/ml	–	–	< 1 U/ml
CC1(C)S[C@@H]2[C@H](NC(=O)[C@H](NC(=O)c3ccc(NC(=O)c4cccs4)cc3)c3ccccc3)C(=O)N2[C@H]1C(=O)O [Example 48]	–	–	–	< 1 U/ml	–	–	–
CC1(C)S[C@@H]2[C@H](NC(=O)[C@H](NC(=O)C=Cc3ccc([N+](=O)[O-])cc3)c3ccccc3)C(=O)N2[C@H]1C(=O)O [Example 54]	–	> 256 U/ml	–	< 1 U/ml	–	–	–
CC1(C)S[C@@H]2[C@H](NC(=O)[C@H](NC(=O)c3ccc(NC(=O)C4CC4)c(NC(=O)C4CC4)c3)c3ccccc3)C(=O)N2[C@H]1C(=O)O [Example 75]	–	> 256 U/ml	–	< 1 U/ml	> 256 U/ml	~ 16 U/ml	–
CC(CC(=O)Nc1ccc(C(=O)N[C@@H](C(=O)N[C@@H]2C(=O)N3[C@@H]2SC(C)(C)[C@@H]3C(=O)O)c2ccccc2)cc1)N=[N+]=[N-] (stereo partly shown) [Example 40]	–	> 256 U/ml	–	< 1 U/ml	–	–	–
CC1(C)S[C@@H]2[C@H](NC(=O)[C@H](NC(=O)CNC(=O)c3ccc(NC=O)cc3)c3ccccc3)C(=O)N2[C@H]1C(=O)O [Example 63]	–	> 256 U/ml	–	< 1 U/ml	> 256 U/ml	~ 4 U/ml	~ 1 U/ml
CC1(C)S[C@@H]2[C@H](NC(=O)[C@H](NC(=O)c3ccc(NC(=O)CC4CC5CCC4C5)cc3)c3ccccc3)C(=O)N2[C@H]1C(=O)O (single isomer, unassigned) [Example 15, sodium D(-)-α-[4-(2-norbornylacetamido-benzoylamino)]-benzylpenicillin]	–	> 256 U/ml	–	< 1 U/ml	–	–	–
CC1(C)S[C@@H]2[C@H](NC(=O)[C@H](NC(=O)C=Cc3ccc(NC(=O)C4CC4)cc3)c3ccccc3)C(=O)N2[C@H]1C(=O)O [Example 56]	–	> 256 U/ml	–	< 1 U/ml	–	–	–
